In the assay the target is T1, TLR9 (Homo sapiens, UniProt Q9NR96).
T1 sequence (Q9NR96 26-1032): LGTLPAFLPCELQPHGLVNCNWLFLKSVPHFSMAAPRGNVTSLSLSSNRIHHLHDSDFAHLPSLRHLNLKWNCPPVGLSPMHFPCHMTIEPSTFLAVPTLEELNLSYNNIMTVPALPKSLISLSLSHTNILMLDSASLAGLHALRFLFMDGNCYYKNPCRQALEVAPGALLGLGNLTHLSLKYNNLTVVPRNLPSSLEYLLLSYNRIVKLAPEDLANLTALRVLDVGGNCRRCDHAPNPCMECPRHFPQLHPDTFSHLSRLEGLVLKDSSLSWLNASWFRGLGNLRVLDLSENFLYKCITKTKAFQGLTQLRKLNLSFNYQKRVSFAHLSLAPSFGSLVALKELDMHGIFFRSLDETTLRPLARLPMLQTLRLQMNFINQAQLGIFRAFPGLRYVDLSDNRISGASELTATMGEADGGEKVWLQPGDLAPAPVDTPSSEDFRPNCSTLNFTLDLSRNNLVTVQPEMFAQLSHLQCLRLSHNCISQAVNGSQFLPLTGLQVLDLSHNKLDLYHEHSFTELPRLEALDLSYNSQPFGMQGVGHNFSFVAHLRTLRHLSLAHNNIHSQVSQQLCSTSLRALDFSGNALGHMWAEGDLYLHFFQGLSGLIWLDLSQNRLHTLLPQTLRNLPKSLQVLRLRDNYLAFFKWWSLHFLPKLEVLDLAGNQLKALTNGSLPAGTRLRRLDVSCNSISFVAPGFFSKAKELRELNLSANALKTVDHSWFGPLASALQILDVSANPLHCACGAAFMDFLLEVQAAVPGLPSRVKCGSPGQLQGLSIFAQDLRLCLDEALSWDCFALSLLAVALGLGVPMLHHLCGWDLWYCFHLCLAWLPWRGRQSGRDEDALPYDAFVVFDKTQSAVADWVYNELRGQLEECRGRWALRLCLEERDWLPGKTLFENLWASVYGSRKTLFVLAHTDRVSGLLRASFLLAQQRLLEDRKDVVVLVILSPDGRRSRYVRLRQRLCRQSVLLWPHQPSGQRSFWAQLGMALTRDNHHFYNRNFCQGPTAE
Nature of the assay: Subsequent human PBMC assay, DNA-mediated activation of TLR9, IL-6 and IFN-α. It is filed as cell-based. On the procedure: Human PBMC Cell-Based Assay. Human peripheral blood mononuclear cells (PBMC) were isolated from freshly-drawn heparinized (10 USP units/ml, Hospira, Lakeforest, Ill.) healthy donor whole blood by density gradient (Histopaque® 1077, Sigma, Inc., St. Louis, Mo.). Briefly, 25 ml blood was diluted with 15 ml PBS (without Ca^2+, Mg^2+) in a 50 ml conical tube, and 12 ml Histopaque was underlaid using a spinal needle. Tubes were centrifuged for 45 minutes at 1200 rpm (350×g), and PBMC were collected from the buffy coat. Cells were then washed twice in PBS, and red blood cells were lysed by suspension in 5 ml ammonium chloride solution (1× Red Blood Cell Lysis Buffer, eBioscience) for 5 minutes at room temperature. After a final wash in PBS, PBMC were resuspended at a final concentration of 2×10^6/ml in RPMI-1640 media with L-glutamine (Invitrogen) and supplemented with 25 mM HEPES (Mediatech, Inc, Manassas Va.), 10% fetal bovine serum (HyClone, Logan, Utah), and Penicillin-Streptomycin-Glutamine (Mediatech) and plated at 100 ul/well (2×10^5 cells/well) in tissue culture treated 96-well plates (Falcon).
Antagonist compounds solubilized and serial diluted in 100% DMSO were added in triplicate to cells to yield a final concentration of 0.1% DMSO (v/v). Hydroxychloroquine (Acros Organics) solubilized and serial diluted in PBS was added in triplicate to cells. PBMC were incubated with antagonist compounds or HCQ for 30 minutes at 37° C., 5% CO2 before adding various TLR agonist reagents in 100 ul complete media per well as follows (final concentrations indicated): R848 (Resiquimod; GLSynthesis, Worcester, Mass.) at 1 uM for TLR7 and TLR8, LPS (Sigma) at 10 ng/ml for TLR4, and CpG-2216 (InvivoGen) at 5 ug/ml for TLR9. To prepare a TLR7/8 agonist that mimics RNA-containing auto-antibody immune complexes in lupus patients, a 26-mer RNA with a sequence derived from human U1 snRNA stem loop IV [(sequence: […]-[…] (SEQ ID NO: 2) with phosphorothioate backbone] was synthesized (Dharmacon, Inc., Lafayette, Colo.), which has been shown previously to be a potent TLR7 and TLR8 agonist. This RNA molecule was diluted to 2.5 μM in serum-free RPMI, and mouse anti-human single stranded DNA monoclonal antibody (MAB3034, Millipore, Inc., Billerica, Mass.), which also cross-reacts with RNA, was added at a 1:25 dilution or at 1 ug/ml. The resulting “RNA-Ig” stimulus was incubated at room temperature for 15-30 minutes before adding to cells. PBMC were incubated with the various TLR agonists for 20 hours at 37° C., 5% CO2. Cell culture supernatants were collected, and levels of various human cytokines were assessed as indicated by standard ELISA procedure according to the manufacturer's recommended protocol (BD Biosciences, Inc., San Diego, Calif.). In a subsequent assay (Table 6) the ability of ER-899742 to block stimulation of normal PBMC by various TLR7/8 ligands, but not DNA-mediated activation of TLR9, was examined. In this assay cells were plated at 1×10^5 cells/well in 100 ul in 96-well plates.

The values that follow come from USRE47193E1, “Selectively substituted quinoline compounds” (EISAI R&D MANAGEMENT CO., LTD., priority 2013, dated 2019).

pIC50: −log10 of the molar value. Several values for one entry are separate records, joined by “and”; a condition that tells them apart may be missing. Identical values can stand only once. Like-named read-outs stand apart in the source and are kept apart here.

In turn, `C[C@@H]1CN(c2ccc(C#N)c3ncccc23)C[C@H](C(=O)N[C@H]2CNC[C@H]2F)O1.Cl` [ER-899742, (2R,6R)-4-(8-cyanoquinolin-5-yl)-N-[(3S,4R)-4-fluoropyrrolidin-3-yl]-6-methylmorpholine-2-carboxamide hydrochloride] had a pIC50 (IC50 IFN-α Ave., human PBMC, ligand ODN2006-DOTAP, average of donors) of under 5.00; a pIC50 (IC50 IFN-α Ave., human PBMC, ligand ODN2216-Ig, average of donors) of under 5.00; a pIC50 (IC50 IFN-α, human PBMC, ligand ODN2006-DOTAP, individual donors) of under 5.00; a negative-log IC50 (pIC50) (IC50 IFN-α, human PBMC, ligand ODN2216-Ig, individual donors) of under 5.00; a negative logarithm of the IC50 (pIC50) (IC50 IL-6, human PBMC, ligand ODN2006-DOTAP, individual donors) of under 5.00; a pIC50 (IC50 IL-6, human PBMC, ligand ODN2216-Ig, individual donors) of under 5.00. For the same compound, the pIC50 reads like this: (IC50 IL-6 Ave., human PBMC, ligand ODN2006-DOTAP, average of donors) under 5.00; (IC50 IL-6 Ave., human PBMC, ligand ODN2216-Ig, average of donors) under 5.00.
As to `CCN(CCO)CCCC(C)Nc1ccnc2cc(Cl)ccc12` (stereo not drawn) [HCQ, hydroxychloroquine, reference compound], the pIC50 (human PBMC, ligand ODN2006-DOTAP, average of donors, read-out: IC50 IFN-α Ave.) was 5.52; the pIC50 (human PBMC, ligand ODN2006-DOTAP, average of donors, read-out: IC50 IL-6 Ave.) is 5.76; the pIC50 (human PBMC, ligand ODN2006-DOTAP, individual donors, read-out: IC50 IFN-α) is 6.04 and 5.39 and 5.51 and 5.40; the pIC50 (human PBMC, ligand ODN2006-DOTAP, individual donors, read-out: IC50 IL-6) was 5.92 and 5.91 and 5.81 and 5.62 and 5.80 and 5.63; the pIC50 (human PBMC, ligand ODN2216-Ig, average of donors, read-out: IC50 IFN-α Ave.) was 6.54; the pIC50 (human PBMC, ligand ODN2216-Ig, average of donors, read-out: IC50 IL-6 Ave.) is 5.62. In addition, the pIC50 (human PBMC, ligand ODN2216-Ig, individual donors, read-out: IC50 IFN-α) was 6.55 and 6.54.

One may read the pIC50 as −log10 of the IC50, conventionally taken in molar units.
